# Data: US20140123342A1, “Regulation of Stomatal Apertures by Apyrases and Extracellular Nucleotides” (BOARD OF REGENTS, THE UNIVERSITY OF TEXAS SYSTEM, priority 2011, published 2014)
# Experiments:
# Assay type in all cases: cell-based, Arabidopsis thaliana
# [1] = system: stomata (guard cells) in epidermal peels; test: Stomatal aperture closure studies, epidermal peels in the light; conditions: for effect on stomatal aperture: epidermal peels, light, 1 h
# Method: (§1) Stomatal Aperture Studies: Arabidopsis thaliana ecotypes Columbia (Col-0) and Wassilewskija (WS) were used as wild types in this study. Col-0, nia1nia2, atrbohD/F, R2-4A and WS plants were all grown on autoclaved Metro-Mix 200 soil at 22° C. under continuous light. The mutant seeds nia1nia2 nia2-5; CS 2356; Col-0 background) were obtained from Dr. N. M. Crawford (University of California at San Diego) and the mutant seeds atrbohD/F (Col-0 background) were obtained from Dr. J. M. Kwak (University of Maryland). The RNAi mutant apyrase line (R2-4A) is in WS background, so WS ecotype was used as the control wild type for these studies. Leaves from 2 to 3 week old Col-0 plants, or R2-4A and WS plants treated with 4 μM estradiol for 1 week after development of mature basal leaves were used for peel and whole leaf studies. Plants were placed in the dark and watered 24 h before an study. For opening studies, plants were used immediately after 24 h dark treatment and all treatments were done in the dark except for the light treated leaves or peels, thus the control stomata are dark controls. For closure studies, plants were placed in the light 3 h before an study to induce stomatal opening and all treatments were done in the light, thus the control stomata are light controls. For peel studies, epidermal peels were made from the underside of the leaf and treatments were applied to the peels for 1 h. For whole leaf studies, leaves were removed and treatments were applied for 2 h. For each treatment, about 3 or 4 peels collected from different leaves or 3 or 4 different leaves of at least two different plants were floated with the abaxial side up in petri dishes on 3 mL of Arabidopsis leaf buffer consisting of 10 mM KCl, 25 mM MES pH 6.15 (Melotto et al., 2006) and the chemical being tested. For whole leaf studies peels were collected after the treatment.
# (§2) For studies testing the effects of ATPγS, ADPγS, AMPS, RB2, and PPADS (Sigma, St. Louis, Mo., USA) 20 mM stocks were made by dissolving the compounds in de-ionized water. For studies testing the effects of apyrase inhibitors, 7.5 mg/mL of NGXT191 and of inhibitor #13 (Windsor et al., 2002) was dissolved in dimethyl sulfoxide (DMSO) and then applied at a dilution of […] for a final concentration of 0.1% DMSO. ABA (Sigma, St. Louis, Mo., USA) was dissolved in ethanol in 10 mM stocks and then applied at a dilution of 1:1000. The stocks were stored at −20° C. while not in use. The production of the anti-AtAPY1 antibodies used is described by Steinebrunner et al. (2003). The crude immune and pre-immune sera were purified using protein A-Sepharose following the protocol described by Martin (1982) with the slight modification that the buffers used were azide-free. The protein-A purified sera were both used at a 1:1000 dilution in leaf stomatal aperture studies. The concentration of the immune and pre-immune sera, determined by Bradford assay (Bio-Rad), was 10.2 μg/mL and 7.7 μg/mL, respectively.
# (§3) After treatment, photos of stomata were taken using a light microscope at 20×. Stomatal aperture width was measured using the image processing software ImageJ. Typically, photos were taken of 70 to 90 stomata per treatment of which only 50 stomata were measured for each treatment. For each treatment the ratio of closed stomata (width of 0) to open stomata was determined for all stomata imaged and this ratio was maintained in the 50 stomata that were measured for each treatment. Data shown uses apertures determined as width/length, however data in all studies also obtained as width only and generally width/length and width only data are in agreement with each other. Statistical significance of the measurements for the treatments was determined using the Student's t test in Microsoft Excel.
# [2] = system: stomata (guard cells) in whole leaves; test: Stomatal aperture closure studies, whole leaves in the light
# Method: as §1, §2, §3
# [3] = system: stomata (guard cells) in epidermal peels; test: Stomatal aperture opening studies, epidermal peels in the dark; conditions: for effect on stomatal aperture: darkness, 1 h
# Method: as §1, §2, §3
# [4] = system: stomata (guard cells) in whole leaves; test: Stomatal aperture opening studies, whole leaves in the dark; conditions: whole leaf studies (data not shown)
# Method: as §1
# as §2, with “The crude immune and pre-immune sera were purified using protein A-Sepharose following the protocol described by Martin (1982) with the slight modification that the buffers used were azide-free. The protein-A purified sera were both used at a 1:1000 dilution in leaf stomatal aperture studies.” left out
# as §3
# [5] = system: H2O2 in guard cells; test: Detection and quantification of H2O2 (H2DCFDA fluorescence); conditions: 200 μM, leaf epidermal tissue, after 30 min
# Method: (§4) Detection and Quantification of H2O2 and NO: Col-0 plants were grown on soil for 2 to 4 weeks under continuous light at 21° C. Plants were placed in the dark for 24 h to ensure closure and then transferred to the light for 1 h. After 1 h in the light, mature basal leaves were excised and blended in a Waring blender on the low setting for approximately 10 s to isolate epidermal tissues, and the tissues were placed in 3 mL of 30 mM KCl, 10 mM Mes-KOH, pH 6.16 buffer in light for 2 h (Pei et al., 2000; Murata et al., 2001). DAF-2 DA and H2DCFDA were dissolved in DMSO to produce 5 mM and 10 mM stock solutions, respectively, and these were stored at −20° C. in 30 μL, aliquots. Fifty μM H2DCFDA or 15 μM DAF-2 DA was added to the medium in the dark, and after 30 min, 10 μM ABA, 200 μM ATPγS, or buffer (ATP control) was also added to the medium in the dark for 30 min. Peels were then rinsed by decanting the treatment solution and adding 3 mL fresh leaf buffer to the peels. Peels were rinsed twice as described. A peel from each of the three treatments (ABA, ATPγS and buffer) were placed on the same microscope slide and observed sequentially. A second study was staggered 30 to 45 min after the first by loading the H2DCFDA or DAF-2 DA dye to new peels 30 to 45 min after the first round of dye was added. Confocal laser scanning microscopy (CLSM) was performed with a Leica SP2 AOBS confocal microscope (Leica Microsystems, Bannockburn, Ill., USA). Laser power was set at 15%, with an excitation of 488 nm and an emission of 525 nm. A series of 0.5 μm optical sections with average intensity projection along the z axis were collected and made into one 2D image with greater focal depth. All images were obtained with the same software scanning settings including detector gain and laser intensity settings.
# [6] = system: NO in guard cells; test: Detection and quantification of NO (DAF-2 DA fluorescence); conditions: 200 μM, leaf epidermal tissue, after 45 min
# Method: as §4
# [7] = system: stomata of atrbohD/F mutant leaves; test: Stomatal closing studies with whole leaves of atrbohD/F mutant; conditions: 200 ATPγS
# Method: (§5) Stomatal Aperture Studies: Arabidopsis thaliana ecotypes Columbia (Col-0) and Wassilewskija (WS) were used as wild types in this study. Col-0, nia1nia2, atrbohD/F, R2-4A and WS plants were all grown on autoclaved Metro-Mix 200 soil at 22° C. under continuous light. The mutant seeds nia1nia2 nia2-5; CS 2356; Col-0 background) were obtained from Dr. N. M. Crawford (University of California at San Diego) and the mutant seeds atrbohD/F (Col-0 background) were obtained from Dr. J. M. Kwak (University of Maryland). The RNAi mutant apyrase line (R2-4A) is in WS background, so WS ecotype was used as the control wild type for these studies. […]
# as §3, with “Statistical significance of the measurements for the treatments was determined using the Student's t test in Microsoft Excel.” left out
# [8] = system: stomata of nia1nia2 mutant leaves; test: Stomatal closing studies with whole leaves of nia1nia2 mutant; conditions: 200 ATPγS
# Method: as §5
# as §3, with “Statistical significance of the measurements for the treatments was determined using the Student's t test in Microsoft Excel.” left out
smiles,measurement,setting,value
Nc1ncnc2c1ncn2[C@@H]1O[C@H](COP(=O)(O)OP(=O)(O)OP(O)(O)=S)[C@@H](O)[C@H]1O [ATPγS],effect on stomatal aperture,[1]; 150 μM,no statistically significant effect
same,mean stomatal aperture after closure compared with ABA,[1]; 200 μM versus 10 μM ABA,statistically the same as the aperture induced by treatment with 10 μM ABA
same,effect on stomatal aperture,[1]; 200 μM,induced stomatal closure
same,effect on stomatal aperture,[1]; 250 μM,induced stomatal closure
same,effect on stomatal aperture,"[2]; 200 μM, leaves, light, 2 h",induced stomatal closure
same,threshold for nucleotide-induced stomatal closure,"[2]; whole leaf studies, compared with peel studies (150 to 200 μM; not shown)",same threshold
same,effect on stomatal aperture,[3]; 5 μM,induced opening
same,effect on stomatal aperture,[3]; 15 μM,induced opening
same,mean stomatal aperture compared with light treatment,[3]; low concentrations (5 and 15 μM),smaller than the aperture induced by light treatment
same,threshold concentration for stomatal opening,[4],higher than 5 μM
same,increase in H2DCFDA fluorescence in guard cells,[5],3 fold
same,increase in DAF-2 DA fluorescence in guard cells,[6],2.5 fold
same,effect on stomatal aperture,[7],no effect on stomatal aperture
same,effect on stomatal aperture,[8],no effect on stomatal aperture
